Patent US6673770B1, “Peptides for the treatment, prophylaxis, diagnosis and monitoring of autoimmune diseases” (Upither B.V., priority 1998, dated 2004)
Where two headings read alike, the source gives them in different places. Ends that are not written are not given here. Peptide text beside a SMILES is read from it.

T1: MHC class II RT1.B^L (Rattus norvegicus, UniProt P20037+P29826)
T1 sequence (P20037 24-256): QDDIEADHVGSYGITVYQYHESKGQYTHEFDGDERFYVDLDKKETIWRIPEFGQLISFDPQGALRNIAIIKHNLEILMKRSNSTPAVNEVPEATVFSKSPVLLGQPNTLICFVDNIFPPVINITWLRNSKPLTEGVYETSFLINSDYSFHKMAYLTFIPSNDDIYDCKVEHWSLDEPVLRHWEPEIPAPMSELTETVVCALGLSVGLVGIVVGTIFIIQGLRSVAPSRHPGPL
T1 sequence (P29826 28-263): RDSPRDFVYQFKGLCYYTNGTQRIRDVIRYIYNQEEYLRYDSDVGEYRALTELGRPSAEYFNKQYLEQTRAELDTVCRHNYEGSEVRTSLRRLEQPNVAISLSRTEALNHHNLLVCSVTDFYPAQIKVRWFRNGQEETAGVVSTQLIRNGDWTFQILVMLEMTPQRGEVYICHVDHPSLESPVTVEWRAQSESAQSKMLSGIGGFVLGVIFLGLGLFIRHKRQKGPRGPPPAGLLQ

T2: DRB1*0401 molecules, detergent solubilised (human), P01903
T2 chain 1: not shown
T2 chain 2: not shown


Key:
DRB1*0401 = DRB1*0401 (Homo sapiens, UniProt P01903+P01911, A100K/A169T/F76Y/I96L/K127E/L162R/M171V/N62H/P40V/Q125Y/R42H/S133A/S149N/S66Y/V115G/V209L/W38E); assay: MHC-peptide competition binding assay on isolated DRB1*0401 molecules
Procedure: T-cell responses to the selected peptides in patients are analysed by studying T-cell proliferation of peripheral blood lymphocytes (PBL) and synovial fluid derived cells. […] In these human studies the peptides are tested as 15-mers containing the 9-mer sequence of Table 2 as core sequence. […] The MHC binding affinity of the selected peptides is analysed for the most-common MHC class II-arthritis associations. […] The peptide binding affinity is tested in a MHC-peptide competition assay on isolated MHC molecules in the presence of a labelled marker peptide.
# MHC-peptide binding was measured as described in Wauben et al., Int. Immunol. […] Peptide binding is expressed as tire IC50.

MHC class II RT1.B^L = target: T1, MHC class II RT1.B^L; assay: MHC-peptide competition binding assay on isolated RT1.B^L molecules; design: species or system Lewis rat
Text: Because the rat self-antigen to which the A2b T-clone is reactive is not known at present time, the present inventors have designed a computer search strategy based on the interactions of the mycobacterial hsp65 178-186 peptide within the trimolecular complex of MHC class II (RT1.B^L)-mycobacterial hsp65 178-186-T-cell receptor of clone A2b, to identify relevant candidate arthritis-associated antigens that can serve as target for autoimmune T-cell mediated tissue destruction in arthritis. Within the mycobacterial hsp65 178-186 sequence, residues involved in MHC binding have been identified by using an MHC-peptide binding assay on isolated MHC class II RT1.B^L proteins. The residues which have an important role in determining the RT1.B^L binding affinity of the mycobacterial hsp65 178-186 peptide, the so-called MHC anchor residues were determined. By studying the MHC-peptide binding affinities of other non-related peptides, a general MHC-peptide binding motif for the Lewis rat RT1.B1 molecule was defined (Wauben et al., Int. Immunol. 9:281 (1997)). For the definition of residues within the minimal core sequence mycobacterial hsp65 180-186, interacting with the T-cell receptor of the A2b T cell clone, the results derived from MHC-peptide binding assays, and proliferation assays of the A2b T cell clone were integrated.
#RT1.B^L binding affinity is expressed as 50%ID (=inhibitory dose). The 50%ID value indicates the concentration of peptide needed to inhibit 50% binding of the marker peptide in a competition assay on isolated RT1.B^L molecules.

[1] = test system: T cells from inguinal and popliteal lymph nodes and spleen; assay: T-cell recognition (proliferation) during adjuvant arthritis time course; type: cell-based, Lewis rats; conditions: positive: proliferation more than 1.5 times background in more than 25% of organs; days 14, 19, 21, 32, 39
T cell clone A2b = assay: Recognition by A2b T-cell clone: proliferation and/or activation marker expression; type: cell-based, Lewis rats; conditions: positive: proliferation more than 2 times background in 2 of 4 experiments and/or activation marker upregulation in 2 of 3 experiments
Procedure: As an immediate read-out for mimicry peptides T-cell activation is measured by proliferation, TcR downregulation, expression of activation markers, and cytokines responses of clone A2b. In addition A2b-like T cells from arthritic rats are isolated, and activation of such cells is measured by, proliferation, TcR downregulation, expression of activation markers, and cytokines responses. Furthermore, T-cell lines are generated after immunisation with MT/IFA or selected peptides/DDA. The cross-reactive nature of the peptide specific T-cell responses is analysed in vitro by determining the recognition of both the self peptide as well as the mycobacterial hsp65 178-186 peptide. After testing the panel of n=65 peptides for induction of proliferation of T cell clone A2b, and/or induction of expression of activation markers, n=20 peptides (SEQ ID NOs: 15, 19, 20, 21, 22, 23, 24, 26, 30, 31, 32, 33, 35, 49, 51, 61, 63, 65, 67, 69) were considered positive. Criteria for positivity were that in 2 out of 4 experiments the induced proliferation was more than 2 times background proliferation as measured by ^3H-thymidine incorporation, and/or that in 2 out of 3 experiments upregulation of an activation marker was detectable by FACS analysis.

[2] = target: T2, DRB1*0401 molecules, detergent …; assay: competition assay on detergent solubilised DRB1*0401 (1 µM) with biotinylated HA-marker peptide (100 nM)
[3] = DRB1*0401 1 μM, biotinylated HA-marker peptide 100 nM, peptide 0-256 μM, read-out: DRB1*0401 binding (IC50)

Molecule	T-cell recognition during adjuvant arthritis [1]	Recognition by T cell clone A2b (T cell clone A2b)	further results
CC(C)C[C@H](NC(=O)[C@H](CCC(=O)O)NC(=O)[C@H](CC(=O)O)NC(=O)[C@@H](NC(=O)[C@@H]1CCCN1C(=O)[C@@H](NC(=O)CNC(=O)[C@H](CO)NC(=O)CNC(=O)CNC(=O)[C@@H](N)CC(C)C)[C@@H](C)O)C(C)C)C(=O)N[C@@H](CC(=O)O)C(=O)N[C@@H](CCCCN)C(=O)N[C@@H](CS)C(=O)N[C@@H](CS)C(=O)O [SEQ ID NO: 79, LGGSGTPVDELDKCC] (H-LGGSGTPVDELDKCC-OH)	–	–	IC50 (DRB1*0401; [3]): 128 to 256 µM
AFGLQLELT [SEQ ID NO: 4, AFGLQLELT]	–	–	IC50 (MHC class II RT1.B^L): 64 to 128 µM
EDLVGSASGDLDLGK [SEQ ID NO: 75, EDLVGSASGDLDLGK]	–	–	IC50 (DRB1*0401; [3]): 32 to 64 µM
FFSGSSQLE (listed as Rattus sp.) [SEQ ID NO: 49]	positive	positive	–
GHSPPDDVD (listed as Homo sapiens) [SEQ ID NO: 51]	positive	positive	–
GVSASVPVE (listed as Rattus sp.) [SEQ ID NO: 30]	positive	positive	–
IDTAVLHLD (listed as Rattus sp.) [SEQ ID NO: 33]	positive	positive	–
IPTVNENLE (listed as Rattus sp.) [SEQ ID NO: 35]	positive	positive	–
ISSFCTVVD (listed as Rattus sp.) [SEQ ID NO: 61]	–	positive	–
LGSGSTRLE (listed as Homo sapiens) [SEQ ID NO: 40]	positive	–	–
LKSLSSQIE (listed as Homo sapiens) [SEQ ID NO: 19]	–	positive	–
LPSGGDDLE (listed as Rattus sp.) [SEQ ID NO: 22]	positive	positive	–
LPSGGESLE (listed as Rattus sp.) [SEQ ID NO: 21]	positive	positive	–
LRSINQGLD (listed as Rattus sp.) [SEQ ID NO: 67]	–	positive	–
LRSPVISID (listed as Homo sapiens) [SEQ ID NO: 23]	positive	positive	–
LRSPVISIE (listed as Mus musculus) [SEQ ID NO: 24]	positive	positive	–
MTSLKSVNGQIESLI [SEQ ID NO: 78, MTSLKSVNGQIESLI]	–	–	IC50 (DRB1*0401; [3]): 64 to 128 µM
NISLVGCIE (listed as Rattus sp.) [SEQ ID NO: 32]	–	positive	–
PDSAPGEIE (listed as Rattus sp.) [SEQ ID NO: 31]	positive	positive	–
QGTIDTAVLHLDTNL [SEQ ID NO: 72, QGTIDTAVLHLDTNL]	–	–	IC50 (DRB1*0401): 8 to 16 µM
QLLGVSASVPVEHRD [SEQ ID NO: 76, QLLGVSASVPVEHRD]	–	–	IC50 (DRB1*0401; [3]): 32 to 64 µM
QPLVQTAVTNIDRPK [SEQ ID NO: 77, QPLVQTAVTNIDRPK]	–	–	IC50 (DRB1*0401; [3]): 32 to 64 µM
SFSPTCVLE (listed as Homo sapiens) [SEQ ID NO: 38]	positive	–	–
SGSFTTALD (listed as Homo sapiens) [SEQ ID NO: 65]	positive	positive	–

Molecule	T-cell recognition during adjuvant arthritis [1]	Recognition by T cell clone A2b (T cell clone A2b)	further results
SGTPVDDLD (listed as Rattus sp.) [SEQ ID NO: 63]	positive	positive	–
SHSAVCHLE (listed as Homo sapiens) [SEQ ID NO: 36]	positive	–	–
SHSFPATLE (listed as Homo sapiens) [SEQ ID NO: 47]	positive	–	–
SYRLRSPVISIDPPS [SEQ ID NO: 74, SYRLRSPVISIDPPS]	–	–	IC50 (DRB1*0401; [3]): 16 to 32 µM
TAGLQLELT [SEQ ID NO: 5, TAGLQLELT]	–	–	IC50 (MHC class II RT1.B^L): 64 to 128 µM
TFALQLELT [SEQ ID NO: 6, TFALQLELT]	–	–	IC50 (MHC class II RT1.B^L): 32 to 64 µM
TFGAQLELT [SEQ ID NO: 7, TFGAQLELT]	–	–	IC50 (MHC class II RT1.B^L): 8 to 16 µM
TFGLALELT [SEQ ID NO: 8, TFGLALELT]	–	–	IC50 (MHC class II RT1.B^L): > 256 µM
TRSGNCYLD (listed as Homo sapiens) [SEQ ID NO: 54]	positive	–	–
TTTVSSFSLNVEYAI [SEQ ID NO: 80, TTTVSSFSLNVEYAI]	–	–	IC50 (DRB1*0401; [3]): 128 to 256 µM
VGSASGALD (listed as Rattus sp.) [SEQ ID NO: 20]	positive	positive	–
VMSFVNMVE (listed as Homo sapiens) [SEQ ID NO: 69]	–	positive	–
FFYFFTGSSQLEFDP (modifications not checked) [MMP-3 (2): …]	–	–	IC50 [2]: 8 µM
SAFWPSLPSYLDAAY (modifications not checked) [MMP-10: …]	–	–	IC50 [2]: 8 to 16 µM
QGTIDTAVLHLDTNL (modifications not checked) [Chondroitin sulf.(4): …]	–	–	IC50 [2]: 8 to 16 µM
SSFWPSLPSGVDAAY (modifications not checked) [MMP-3 (1): …]	–	–	IC50 [2]: 16 to 32 µM
SYRLRSPVISIDPPS (modifications not checked) [Perlecan: …]	–	–	IC50 [2]: 16 to 32 µM
EDLVGSASGDLDLGK (modifications not checked) [Aggrecan (1): …]	–	–	IC50 [2]: 32 to 64 µM
QLLGVSASVPVEHRD (modifications not checked) [Chondroitin sulf.(1): …]	–	–	IC50 [2]: 32 to 64 µM
QPLVQTAVTNIDRPK (modifications not checked) [Fibronectin: …]	–	–	IC50 [2]: 32 to 64 µM
MTSLKSVNGQIESLI (modifications not checked) [(Pro)collagen α1(III): …]	–	–	IC50 [2]: 64 to 128 µM
LGGSGTPVDELDKCC (not fully specified; cysteine pairing not given here) [Phospholipase A2: …]	–	–	IC50 [2]: 128 to 256 µM
TTTVSSFSLNVEYAI (modifications not checked) [Versican: …]	–	–	IC50 [2]: 128 to 256 µM
